# Reference: US7335632B2, “Beta-secretase inhibitors and methods of use thereof” (CoMentis, Inc., priority 2001, dated 2008)
# Assays:
# memapsin 1 = target: T1, memapsin 1 (Homo sapiens, UniProt Q9Y5Z0); test: Inhibition of memapsin 1 beta-secretase activity (substrate peptide […], MALDI-TOF); format: biochemical; details: pH 4.1, 37 degrees C., substrate NH3-ELDLAVEFWHDR-CO2, MALDI-TOF; read-out: M1 Ki
# T1 sequence (Q9Y5Z0 63-518): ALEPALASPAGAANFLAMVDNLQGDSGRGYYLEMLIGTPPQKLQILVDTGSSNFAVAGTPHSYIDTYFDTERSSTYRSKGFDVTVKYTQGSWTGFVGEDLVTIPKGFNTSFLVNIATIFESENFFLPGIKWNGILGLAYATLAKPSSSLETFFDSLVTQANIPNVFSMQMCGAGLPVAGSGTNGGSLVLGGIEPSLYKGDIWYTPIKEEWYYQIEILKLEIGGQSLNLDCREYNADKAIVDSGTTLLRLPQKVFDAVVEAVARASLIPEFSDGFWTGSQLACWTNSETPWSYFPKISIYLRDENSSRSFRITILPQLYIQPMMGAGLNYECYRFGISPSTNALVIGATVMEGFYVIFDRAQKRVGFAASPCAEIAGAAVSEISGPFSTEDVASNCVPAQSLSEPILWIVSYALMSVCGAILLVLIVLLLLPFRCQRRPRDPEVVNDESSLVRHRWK
# memapsin 2 = memapsin 2 (Homo sapiens, UniProt P56817); test: Inhibition of memapsin 2 beta-secretase activity toward fluorogenic substrate FS-2; format: biochemical; details: pH 4, 37° C., 20 minutes pre-incubation, substrate FS-2, tight-binding model; read-out: M2 Ki
# Chain of memapsin 2 (P56817 46-501): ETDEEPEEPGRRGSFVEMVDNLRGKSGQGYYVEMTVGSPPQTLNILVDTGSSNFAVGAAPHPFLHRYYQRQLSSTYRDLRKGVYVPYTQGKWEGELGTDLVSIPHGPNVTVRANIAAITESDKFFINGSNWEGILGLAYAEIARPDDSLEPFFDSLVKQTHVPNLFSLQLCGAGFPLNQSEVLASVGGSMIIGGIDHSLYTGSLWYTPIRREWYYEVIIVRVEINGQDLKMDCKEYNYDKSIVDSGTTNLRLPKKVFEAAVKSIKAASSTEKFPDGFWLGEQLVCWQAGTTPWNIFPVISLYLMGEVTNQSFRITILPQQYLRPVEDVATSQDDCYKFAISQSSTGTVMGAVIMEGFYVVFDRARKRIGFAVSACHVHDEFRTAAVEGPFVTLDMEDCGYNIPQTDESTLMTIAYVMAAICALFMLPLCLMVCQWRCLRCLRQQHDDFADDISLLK
# Protocol: Potency of compounds were determined by measurement of their inhibition of memapsin 2 activity toward a fluorescent substrate. […] Briefly, assays were performed at pH 4, 37° C., by pre-incubation of memapsin 2 enzyme with compound for 20 minutes. Activity measure was initiated by addition of a fluorogenic substrate FS-2 (Bachem Americas, Torrance, Calif.). Fluorescent signal increase over time was measured as a rate of hydrolysis of the peptide substrate.
# Cathepsin D = Cathepsin D (Homo sapiens, UniProt P07339); test: Inhibition of cathepsin D activity (substrate peptide […], MALDI-TOF); format: biochemical; details: pH 4.1, 37 degrees C., substrate NH3-[…]-CO2, MALDI-TOF; read-out: Cath D Ki
# Chain of Cathepsin D (P07339 65-412, species assumed): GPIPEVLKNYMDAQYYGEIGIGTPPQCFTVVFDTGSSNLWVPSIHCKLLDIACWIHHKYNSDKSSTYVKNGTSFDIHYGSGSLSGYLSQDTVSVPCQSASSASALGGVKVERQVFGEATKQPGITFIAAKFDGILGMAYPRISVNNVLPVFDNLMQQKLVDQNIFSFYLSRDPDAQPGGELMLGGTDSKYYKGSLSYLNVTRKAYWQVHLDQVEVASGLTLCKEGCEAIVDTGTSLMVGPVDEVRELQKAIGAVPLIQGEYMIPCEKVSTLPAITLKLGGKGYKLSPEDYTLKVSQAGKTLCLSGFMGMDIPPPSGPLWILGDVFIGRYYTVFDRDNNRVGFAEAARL
# Aβ production = test: Cellular Aβ IC50 determination (Aβ40 sandwich ELISA); format: cell-based; details: Cricetulus griseus, Chinese hamster ovary cells over-expressing human APP695 with London and Swedish mutations, 24 h
# Protocol: The potency of compounds against memapsin 2 activity was determined in a cellular assay of Aβ production. […] Chinese hamster ovary cells that over-express human APP695 with the London and Swedish mutations were seeded in multi-well plates at 10% confluency. Compounds were dissolved in DMSO to concentrations near 1 mM, and diluted into culture media to a final concentration near 4 μM (final 0.4% DMSO). Compounds were diluted serially and applied to cells in multi-well plates 48 h after seeding. Incubation was continued in 5% CO2 at 37 degrees C. for 24 h. Aliquots were removed and assayed for Aβ40 content using a sandwich ELISA (BioSource International). Amount of Aβ40 over the range of concentration of compounds, relative to control incubations, were fit to a 4-parameter IC50 model.
SMILES,Ki (memapsin 1),Ki (memapsin 2),Ki (Cathepsin D),IC50 (Aβ production)
CC[C@@H](Cn1nc(C)cc1C)C(=O)N[C@@H](CSC)C(=O)N[C@H](CC(C)C)[C@@H](O)C[C@@H](C)C(=O)N[C@@H](C(=O)NCC(C)C)C(C)C [Structure 3],100 to 1000 nM,< 100 nM,< 100 nM,< 6000 nM
CSC[C@H](NC(=O)CCn1nc(C)cc1C)C(=O)N[C@H](CC(C)C)[C@@H](O)C[C@@H](C)C(=O)N[C@@H](C(=O)NCC(C)C)C(C)C [Structure 4],100 to 1000 nM,100 to 1000 nM,< 100 nM,6000 to 100000 nM
Cc1cc(C)n(CCC(=O)N[C@@H](CS(C)(=O)=O)C(=O)N[C@@H](CC(C)C)[C@@H](O)C[C@@H](C)C(=O)N[C@@H](C(=O)NCC(C)C)C(C)C)n1 [Structure 5],100 to 1000 nM,< 100 nM,100 to 1000 nM,> 100000 nM
CC[C@@H](Cn1nc(C)cc1C)C(=O)N[C@@H](CS(C)(=O)=O)C(=O)N[C@@H](CC(C)C)[C@@H](O)C[C@@H](C)C(=O)N[C@@H](C(=O)NCC(C)C)C(C)C [Structure 7],< 100 nM,< 100 nM,< 100 nM,> 100000 nM
CC[C@@H](Cn1nc(C)cc1C)C(=O)N[C@@H](C[S+](C)[O-])C(=O)N[C@@H](CC(C)C)[C@@H](O)C[C@@H](C)C(=O)N[C@@H](C(=O)NCC(C)C)C(C)C (stereo partly shown) [Structure 8],< 100 nM,< 100 nM,100 to 1000 nM,< 6000 nM
Cc1cc(C)n(COC(=O)N[C@@H](C[S+](C)[O-])C(=O)N[C@@H](CC(C)C)[C@@H](O)C[C@@H](C)C(=O)N[C@H](C(=O)NCC(C)C)C(C)C)n1 (stereo partly shown) [Structure 9],< 100 nM,< 100 nM,100 to 1000 nM,< 6000 nM
Cc1csc(COC(=O)N[C@@H](CS(C)(=O)=O)C(=O)N[C@H](CC(C)C)[C@@H](O)C[C@@H](C)C(=O)N[C@@H](C(=O)NCC(C)C)C(C)C)n1 [Structure 16],100 to 1000 nM,< 100 nM,100 to 1000 nM,6000 to 100000 nM
CSC[C@H](NC(=O)OCc1nc(C)cs1)C(=O)N[C@H](CC(C)C)[C@@H](O)C[C@@H](C)C(=O)N[C@@H](C(=O)NCC(C)C)C(C)C [Structure 17],100 to 1000 nM,< 100 nM,< 100 nM,6000 to 100000 nM
C=CCS(=O)(=O)C[C@H](NC(=O)CCn1nc(C)cc1C)C(=O)N[C@H](CC(C)C)[C@@H](O)C[C@@H](C)C(=O)N[C@@H](C(=O)NCC(C)C)C(C)C [Structure 18],< 100 nM,< 100 nM,< 100 nM,> 100000 nM
CCSC[C@H](NC(=O)OCc1nc(C)cs1)C(=O)N[C@H](CC(C)C)[C@@H](O)C[C@@H](C)C(=O)N[C@@H](C(=O)NCC(C)C)C(C)C [Structure 19],< 100 nM,< 100 nM,< 100 nM,> 100000 nM
CCS(=O)(=O)C[C@H](NC(=O)OCc1nc(C)cs1)C(=O)N[C@H](CC(C)C)[C@@H](O)C[C@@H](C)C(=O)N[C@@H](C(=O)NCC(C)C)C(C)C [Structure 22],100 to 1000 nM,< 100 nM,100 to 1000 nM,< 6000 nM
CSC[C@H](NC(=O)OCc1nc(C)oc1C)C(=O)N[C@H](CC(C)C)[C@@H](O)C[C@@H](C)C(=O)N[C@@H](C(=O)NCC(C)C)C(C)C [Structure 29],100 to 1000 nM,< 100 nM,< 100 nM,< 6000 nM
COCCOCS(=O)(=O)C[C@H](NC(=O)OCc1nc(C)cs1)C(=O)N[C@H](CC(C)C)[C@@H](O)C[C@@H](C)C(=O)N[C@@H](C(=O)NCC(C)C)C(C)C [Structure 30],100 to 1000 nM,< 100 nM,100 to 1000 nM,< 6000 nM
Cc1csc(COC(=O)N[C@@H](CS(=O)(=O)C(C)C)C(=O)N[C@H](CC(C)C)[C@@H](O)C[C@@H](C)C(=O)N[C@@H](C(=O)NCC(C)C)C(C)C)n1 [Structure 31],100 to 1000 nM,< 100 nM,100 to 1000 nM,6000 to 100000 nM
Cc1csc(COC(=O)N[C@@H](CSC(C)C)C(=O)N[C@H](CC(C)C)[C@@H](O)C[C@@H](C)C(=O)N[C@@H](C(=O)NCC(C)C)C(C)C)n1 [Structure 32],100 to 1000 nM,< 100 nM,< 100 nM,< 6000 nM
CSC[C@H](NC(=O)C(C)Cc1nc(C)cs1)C(=O)N[C@H](CC(C)C)[C@@H](O)C[C@@H](C)C(=O)N[C@@H](C(=O)NCC(C)C)C(C)C (stereo partly shown) [Structure 34],100 to 1000 nM,< 100 nM,< 100 nM,< 6000 nM
COCS(=O)(=O)C[C@H](NC(=O)OCc1nc(C)cs1)C(=O)N[C@H](CC(C)C)[C@@H](O)C[C@@H](C)C(=O)N[C@@H](C(=O)NCC(C)C)C1CCCCC1 [Structure 35],100 to 1000 nM,< 100 nM,100 to 1000 nM,> 100000 nM
Cc1csc(COC(=O)N[C@@H](CS(C)(=O)=O)C(=O)N[C@@H](CC(C)C)[C@@H](O)C[C@@H](C)C(=O)N[C@H]2CCNC2=O)n1 [Structure 83],> 1000 nM,> 1000 nM,> 1000 nM,
CSC[C@H](NC(=O)OCc1nc(C)oc1C)C(=O)N[C@H](CC(C)C)[C@@H](O)C[C@@H](C)C(=O)N[C@@H](C(=O)OCc1ccccc1)C(C)C [Structure 84],> 1000 nM,> 1000 nM,100 to 1000 nM,
Cc1nc(COC(=O)N[C@@H](CS(C)(=O)=O)C(=O)N[C@H](CC(C)C)[C@@H](O)C[C@@H](C)C(=O)N[C@@H](C(=O)OCc2ccccc2)C(C)C)c(C)o1 [Structure 85],100 to 1000 nM,100 to 1000 nM,100 to 1000 nM,
Cc1nc(COC(=O)N[C@@H](CS(C)(=O)=O)C(=O)N[C@H](CC(C)C)[C@@H](O)C[C@@H](C)C(=O)N[C@@H](C(=O)NCc2cccnc2)C(C)C)c(C)o1 [Structure 87],< 100 nM,< 100 nM,100 to 1000 nM,
CC[C@H](C[C@H](O)[C@@H](CC(C)C)NC(=O)[C@H](CSC)NC(=O)OCc1nc(C)oc1C)C(=O)N[C@@H](C(=O)NCC(C)C)C(C)C [Structure 89],100 to 1000 nM,< 100 nM,< 100 nM,
CSC[C@H](NC(=O)OCc1nc(C)cs1)C(=O)N[C@H](CC(C)C)[C@@H](O)C[C@@H](C)C(=O)N[C@@H](C(N)=O)C(C)C [Structure 90],,> 1000 nM,,< 6000 nM
Cc1nc(COC(=O)N[C@@H](CS(C)(=O)=O)C(=O)N[C@H](CC(C)C)[C@@H](O)C[C@@H](C)C(=O)N[C@@H](C(=O)NCc2ccccn2)C(C)C)c(C)o1 [Structure 91],,< 100 nM,,> 100000 nM
CC[C@H](C[C@H](O)[C@@H](CC(C)C)NC(=O)[C@H](CS(C)(=O)=O)NC(=O)OCc1nc(C)oc1C)C(=O)N[C@@H](C(=O)NCC(C)C)C(C)C [Structure 92],,,,< 6000 nM
CSC[C@H](NC(=O)OCc1nc(C)oc1C)C(=O)N[C@@H](CC(C)C)[C@@H](O)C[C@@H](C)C(=O)N[C@H](C(=O)Nc1nccs1)C(C)C [Structure 96],100 to 1000 nM,100 to 1000 nM,< 100 nM,
CSC[C@H](NC(=O)[C@@H](C)Cc1nc(C)oc1C)C(=O)N[C@@H](CC(C)C)[C@@H](O)C[C@@H](C)C(=O)N[C@H](C(=O)NCC(C)C)C(C)C [Structure 97],100 to 1000 nM,< 100 nM,< 100 nM,
COc1ccc(C[C@H](NC(=O)[C@H](CS(C)(=O)=O)NC(=O)OCc2nc(C)oc2C)[C@@H](O)C[C@@H](C)C(=O)N[C@H](C(=O)NCC(C)C)C(C)C)cc1 [Structure 98],100 to 1000 nM,> 1000 nM,< 100 nM,
